Experimental data as given in publication PMC5706701, “Development of a homogenous high-throughput assay for inositol hexakisphosphate kinase 1 activity” (PLoS ONE, 2017).
Where “and” joins values, the source holds several entries; their conditions need not be identical. Equal values may be shown once. Where a name gives a salt, the structure may show the parent alone. Read-outs that look alike come from different tables or passages of the source.

Molecular target: T1, Human IP6K1 (Homo sapiens, UniProt Q92551)
T1 construct: GST (N, cleaved yes); made in house; host or cells: C43 E. coli, pGEX-6P-2
Assay: IP6K1 high-throughput screen of the Sigma LOPAC (ADP-Glo Max, single point);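 also: final compound concentration 10µM in 5% DMSO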
Assay type: biochemical

[1] = LOPAC single-point screen, ADP-Glo Max luminescence raw signal per well
[2] = LOPAC single-point screen, Z-score relative to plate average and StDev
[3] = LOPAC single-point screen, ADP-Glo Max raw signal per well
[4] = LOPAC single-point screen, Z-score against plate average and StDev
[5] = Sigma LOPAC single-point screen, ADP-Glo Max raw signal per well
[6] = Sigma LOPAC single-point screen, Z-score from plate average and StDev
[7] = LOPAC single-point screen, Z-score from plate average and StDev
[8] = LOPAC single-point screen, Z-score from raw signal with plate average and StDev

T1 sequence (Q92551 whole entry): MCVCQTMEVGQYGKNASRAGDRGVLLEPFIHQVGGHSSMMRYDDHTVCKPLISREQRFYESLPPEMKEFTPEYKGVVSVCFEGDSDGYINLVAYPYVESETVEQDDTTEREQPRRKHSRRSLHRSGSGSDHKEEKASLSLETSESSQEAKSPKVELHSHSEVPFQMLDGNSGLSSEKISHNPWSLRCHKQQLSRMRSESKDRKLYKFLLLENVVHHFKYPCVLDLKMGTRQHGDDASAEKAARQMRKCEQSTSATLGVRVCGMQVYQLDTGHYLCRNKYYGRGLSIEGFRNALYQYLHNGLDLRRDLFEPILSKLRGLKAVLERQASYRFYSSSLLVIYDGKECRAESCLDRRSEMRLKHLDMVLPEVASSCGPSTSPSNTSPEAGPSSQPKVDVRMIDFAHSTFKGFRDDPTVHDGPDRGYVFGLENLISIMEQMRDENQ

Nc1nc2ccc(OC(F)(F)F)cc2s1 [Riluzole]
Raw Signal [1]: 52217 | Z-score [2]: -0.7396

Cc1nc2n(c(=O)c1CCN1CCC(c3noc4cc(F)ccc34)CC1)CCCC2 [Risperidone]
Raw Signal [1]: 53532 | Z-score [2]: -0.4841

Cc1nc2sccn2c(=O)c1CCN1CCC(=C(c2ccc(F)cc2)c2ccc(F)cc2)CC1 [Ritanserin]
Raw Signal [3]: 56847 | Z-score [4]: 0.1599

CC(NCCc1ccc(O)cc1)C(O)c1ccc(O)cc1 (centres unmarked) [Ritodrine hydrochloride]
Raw Signal [5]: 59316 | Z-score [6]: 0.6396

CNc1cc(NS(=O)(=O)c2ccc(N)cc2)nc(NC)n1.Cl.Cl [Ro 04-6790 dihydrochloride]
Raw Signal [1]: 63150 | Z-score [7]: 1.384

NC(=O)c1ccc(OCC(O)CN2CC=C(c3ccc(F)cc3)CC2)cc1 (centres unmarked) [Ro 8-4304]
Raw Signal [1]: 63292 | Z-score [7]: 1.412

Cl.NCCNC(=O)c1ccc(Cl)cc1 [Ro 16-6491 hydrochloride]
Raw Signal [5]: 60492 | Z-score [6]: 0.8681

O=C(c1cc(O)c(O)c([N+](=O)[O-])c1)c1ccccc1F [Ro 41-0960]
Raw Signal [5]: 58523 | Z-score [6]: 0.4855

Cl.NCCNC(=O)c1ncsc1-c1cccc(F)c1 [Ro 41-1049 hydrochloride]
Raw Signal [5]: 60989 | Z-score [6]: 0.9646

COc1ccc(C2CNC(=O)C2)cc1OC1CCCC1 (centres unmarked) [Rolipram]
Raw Signal [3]: 57545 | Z-score [4]: 0.2955

CCCN(CCC)CCc1cccc2c1CC(=O)N2 [Ropinirole hydrochloride]
Raw Signal [3]: 53968 | Z-score [8]: -0.3994

CC[C@H](CO)Nc1nc(NCc2ccccc2)c2ncn(C(C)C)c2n1 [Roscovitine]
Raw Signal [3]: 54754 | Z-score [8]: -0.2467

C=C(C)[C@H]1Cc2c(ccc3c2O[C@@H]2COc4cc(OC)c(OC)cc4[C@@H]2C3=O)O1 [Rotenone]
Raw Signal [5]: 59768 | Z-score [6]: 0.7274

CC(=O)c1c(O)c(C)c(O)c(Cc2c(O)c3c(c(C(=O)/C=C/c4ccccc4)c2O)OC(C)(C)C=C3)c1O [Rottlerin]
Raw Signal [3]: 55469 | Z-score [8]: -0.1078

CCN(CC)CC.Nc1ncnc2c1ncn2C1OC2COP(O)(=S)O[C@@H]2[C@@H]1O (some centres unmarked) [Rp-cAMPS triethylamine]
Raw Signal: 55695 | Z-score: -0.3907

O=c1c2ccccc2nc2n1CCc1c-2[nH]c2ccccc12 [Rutaecarpine]
Raw Signal [3]: 54118 | Z-score [8]: -0.3703

N.N.N.N.N.N.N.N.N.N.N.N.N.N.[Cl-].[Cl-].[Cl-].[Cl-].[Cl-].[Cl-].[O-2].[O-2].[Ru+3].[Ru+3].[Ru+4] [Ruthenium red]
Raw Signal [1]: 52989 | Z-score [2]: -0.5896

CC(C)Cc1ccc([C@H](C)C(=O)O)cc1 [S(+)-Ibuprofen]
Raw Signal [3]: 55445 | Z-score [4]: 0.1767

CC(C)NC[C@@H](O)c1ccc(O)c(O)c1.O=C(O)C(O)C(O)C(=O)O [S(+)-Isoproterenol (+)-bitartrate]
Raw Signal [3]: 55551 | Z-score [4]: 0.1945

CCCN1CCO[C@@H]2c3cc(O)ccc3OC[C@H]21.Cl [S(+)-PD 128,907 hydrochloride]
Raw Signal [3]: 56406 | Z-score [4]: 0.07425

CC(C)NC[C@H](O)COc1ccc(CC(N)=O)cc1 [S(-)-Atenolol]
Raw Signal [3]: 56960 | Z-score [8]: -0.1679

CCN1CCC[C@H]1CNC(=O)c1c(OC)ccc(I)c1O [S(-)-IBZM]
Raw Signal [1]: 51122 | Z-score [2]: -0.5497

CC(C)NCC(O)COc1cccc2[nH]ccc12 (stereo not drawn) [S(-)-Pindolol]
Raw Signal [1]: 52829 and 52276

CC(C)(C)NC[C@H](O)COc1nsnc1N1CCOCC1.O=C(O)/C=C\C(=O)O [S(-)-Timolol maleate]
Raw Signal [3]: 57221 | Z-score [4]: 0.2326

N[C@@H](Cn1ccc(=O)[nH]c1=O)C(=O)O [S(-)-Willardiine]
Raw Signal [3]: 55281 | Z-score [8]: -0.1443

Brc1ccc([C@H]2CN3CCSC3=N2)cc1.O=C(O)C(=O)O [S(-)-p-Bromotetramisole oxalate]
Raw Signal [5]: 61891 | Z-score [6]: 0.7006

N[C@@H](Cn1cc(I)c(=O)[nH]c1=O)C(=O)O [S-5-Iodowillardiine]
Raw Signal [3]: 55016 | Z-score [8]: -0.1958

Nc1nc(SCc2ccc([N+](=O)[O-])cc2)c2ncn([C@@H]3O[C@H](CO)[C@@H](O)[C@H]3O)c2n1 [S-(4-Nitrobenzyl)-6-thioguanosine]
Raw Signal [5]: 63053 | Z-score [6]: 0.9053

O=[N+]([O-])c1ccc(CSc2ncnc3c2ncn3[C@@H]2O[C@H](CO)[C@@H](O)[C@H]2O)cc1 [S-(4-Nitrobenzyl)-6-thioinosine]
Raw Signal [1]: 50827 | Z-score [2]: -0.5993

CNCC[C@H](Oc1ccc(C(F)(F)F)cc1)c1ccccc1.Cl [S-(+)-Fluoxetine hydrochloride]
Raw Signal [5]: 58446 | Z-score [6]: 0.6659

C[C@@](Cc1ccc(O)c(O)c1)(NN)C(=O)O [S-(-)-Carbidopa]
Raw Signal [3]: 55065 | Z-score [4]: -0.02072

CCc1cc(Cl)c(O)c(C(=O)NC[C@@H]2CCCN2CC)c1OC.Cl [S-(-)-Eticlopride hydrochloride]
Raw Signal [1]: 63565 | Z-score [7]: 1.706

[N-]=[N+]=Nc1ccc(C(=O)CSC[C@H](NC(=O)CC[C@H](N)C(=O)O)C(=O)NCC(=O)O)cc1 [S-(p-Azidophenacyl)glutathione]
Raw Signal [3]: 57217 | Z-score [8]: -0.1226

Br.CCSC(=N)N [S-Ethylisothiourea hydrobromide]
Raw Signal [3]: 55596 | Z-score [4]: 0.08712

CSC(N)=NCCC[C@H](N)C(=O)O [S-Methyl-L-thiocitrulline acetate]
Raw Signal [3]: 53034 | Z-score [8]: -0.2284

CSC(=N)N.CSC(=N)N.O=S(=O)(O)O [S-Methylisothiourea hemisulfate]
Raw Signal [3]: 51759 | Z-score [8]: -0.4427

N[C@@H](CCC(=O)N[C@@H](CSN=O)C(=O)NCC(=O)O)C(=O)O [S-Nitrosoglutathione]
Raw Signal [3]: 53456 | Z-score [8]: -0.1575

Cl.Cn1ccc2cc(NC(=O)Nc3cccnc3)ccc21 [SB 200646 hydrochloride]
Raw Signal [3]: 55663 | Z-score [8]: -0.3963

Oc1ccc(-c2nc(-c3ccncc3)c(-c3ccc(F)cc3)[nH]2)cc1 [SB 202190]
Raw Signal [3]: 58086 | Z-score [4]: 0.03045

O=C(OCCN1CCCCC1)c1c[nH]c2ccccc12 [SB 203186]
Raw Signal [1]: 49486 | Z-score [2]: -1.154

CCCCN1CCC(COC(=O)c2cc(Cl)c(N)c3c2OCCO3)CC1.Cl [SB 204070 hydrochloride]
Raw Signal [5]: 60689 | Z-score [6]: 0.9064

Cc1cc(NC(=O)Nc2ccc3c(ccn3C)c2)sn1 [SB 204741]
Raw Signal [3]: 55947 | Z-score [8]: -0.3463

CC#CCOC(=O)c1c(C)nc2sc3c(c2c1N)CCC(O)C3 (centres unmarked) [SB 205384]
Raw Signal [5]: 57931 | Z-score [6]: 0.3705

Cn1ccc2cc3c(cc21)CCN3C(=O)Nc1cccnc1 [SB 206553 hydrochloride]
Raw Signal [3]: 56981 | Z-score [4]: 0.186

Cn1cc(C2=C(c3ccc(Cl)cc3Cl)C(=O)NC2=O)c2ccccc21 [SB 216763]
Raw Signal [5]: 56670 | Z-score [6]: 0.3825

COC(=O)[C@H](NC(=O)c1cc(-c2ccccc2)nc2ccccc12)c1ccccc1 [SB 218795]
Raw Signal [5]: 57840 | Z-score [6]: 0.5429

CC[C@H](NC(=O)c1c(C)c(-c2ccccc2)nc2ccccc12)c1ccccc1 [SB 222200]
Raw Signal [3]: 57369 | Z-score [8]: -0.09583

Cc1nc(-c2ccc(-c3ccc(C(=O)N4CCc5cc6c(cc54)C4(CCN(C)CC4)CO6)cc3)c(C)c2)no1.Cl [SB 224289 hydrochloride]
Raw Signal [5]: 58823 | Z-score [6]: 0.5438

COc1cc2c(cc1C(F)(F)F)N(C(=O)Nc1cc(F)cc(-c3cccnc3)c1)CC2 [SB 228357]
Raw Signal [5]: 58844 | Z-score [6]: 0.7468

CC1CCN(CC[C@H]2CCCN2S(=O)(=O)c2cccc(O)c2)CC1.Cl [SB 269970 hydrochloride]
Raw Signal [3]: 57058 | Z-score [4]: 0.2009

COc1cccc(NC(=O)/C=C/c2ccc(Cl)cc2)c1 [SB-366791]
Raw Signal [1]: 52546 | Z-score [2]: -0.6757

CC(=O)NNC(=O)N1Cc2ccccc2Oc2ccc(Cl)cc21 [SC 19220]
Raw Signal [5]: 57783 | Z-score [6]: 0.3418

Cc1nc2c(OCc3ccccc3)cccn2c1CC#N [SCH-28080]
Raw Signal [1]: 49264 | Z-score [2]: -1.199

Br.CN=c1nc(-c2ccccc2)n(-c2ccccc2)s1 [SCH-202676 hydrobromide]
Raw Signal [1]: 51247 | Z-score [2]: -0.928

CCN(CC)CCOC(=O)c1cc(Cl)c(N)cc1OC.Cl [SDZ-205,557 hydrochloride]
Raw Signal [3]: 56215 | Z-score [4]: 0.03715

Cc1ccc(O)c(N=Nc2ccccc2)n1 [SIB 1757]
Raw Signal [1]: 46352 | Z-score [2]: -1.879

Cc1cccc(/C=C/c2ccccc2)n1 [SIB 1893]
Raw Signal [3]: 55669 | Z-score [4]: -0.06893

Br.CN1CCc2cc(O)c(O)cc2C(c2ccccc2)C1 (centres unmarked) [SKF 75670 hydrobromide]
Raw Signal [3]: 56113 | Z-score [4]: 0.01733

Br.Cc1cccc(C2CN(C)CCc3c2cc(O)c(O)c3Cl)c1 (centres unmarked) [SKF 83959 hydrobromide]
Raw Signal [1]: 52693 | Z-score [2]: -0.6471

CN1CCc2cccc(Cl)c2CC1 [SKF 86466]
Raw Signal [3]: 54503 | Z-score [8]: -0.2955

Br.Oc1ccc(C2CNCc3sccc32)cc1O (centres unmarked) [SKF 89626]
Raw Signal [3]: 56262 | Z-score [4]: 0.04628

Cl.O=C(O)C1CCCN(CCC=C(c2ccccc2)c2ccccc2)C1 (centres unmarked) [SKF 89976A hydrochloride]
Raw Signal [3]: 57225 | Z-score [4]: 0.2334

CN(C)CCCCSC(=N)N.Cl.Cl [SKF 91488 dihydrochloride]
Raw Signal [3]: 55411 | Z-score [8]: -0.1191
